In publication PMC8282797, “Strictly regulated agonist-dependent activation of AMPA-R is the key characteristic of TAK-653 for robust synaptic responses and cognitive improvement” (Scientific Reports, 2021):

Tested on: AMPA-R
Experiment: Ca2+ influx assay using rat primary hippocampal neurons
Assay type: cell-based
Parameters: key to Single effect on Ca2+ level: -: No effect or slight effect; +: Potent; ++: Very potent
Conditions: for Single effect on Ca2+ level: summary grade
Description: Ca^2+ influx assay using primary neurons was performed as previously described. After 5 days of culture, the cells plated on poly-D-lysine coated 96-well plates (Corning Incorporated) at 2 × 10^4 or 5 × 10^4 cells/well were used for experiments with PF-04958242 or TAK-653, respectively. Fluorescent calcium indicator dye solution (Calcium4 assay Kit, Dojindo, Kumamoto, Japan) in Ca^2+ reaction buffer (DMEM, HEPES and BSA) containing Probenecid (Dojindo) was added and incubated for 60 min in 5% CO2 at 37 °C. After washing once, the relative increases in intracellular Ca^2+ levels stimulated by compounds in the presence and absence of AMPA were monitored. Details are described in the Supplementary Information.
Primary cultures of hippocampal neuronal cells were prepared from fetal Sprague-Dawley rats at 19 days of gestation. Rat embryos were decapitated and their whole brains were isolated. Hippocampi were dissected in ice-cold Hanks' Balanced Salt Solutions (HBSS) under a microscope and then dispersed into cells using a neural cell dispersion kit (Sumitomo Bakelite Co., Ltd., Tokyo, Japan). The dissociated cells were suspended in Neurobasal medium containing B27 supplement (Thermo Fisher Scientific Inc.), 2 mM L-glutamine (Lonza, Basel, Switzerland), 100 U/mL penicillin (Lonza), 100 μg/mL streptomycin (Lonza) and 20 μg/mL gentamicin sulfate (Lonza). The cells were plated on poly-D-lysine coated 96-well plates (Corning Incorporated) for Ca^2+ influx assay or on poly-L-lysine coated 96-well plates (Sumitomo Bakelite) for measurement of BDNF protein levels and cultured in a humidified CO2 incubator with 5% CO2 at 37°C.
After 5 days of culture, the cells at 2×10^4 or 5×10^4 cells/well were used for experiments with PF-04958242 or TAK-653, respectively. For TAK-653, after removal of culture medium, 75 µL of fluorescent calcium indicator dye solution (Calcium4 assay Kit, Dojindo, Kumamoto, Japan) in Ca^2+ reaction buffer (DMEM, 10 mM HEPES and 0.1% BSA) containing 1.25 mM Probenecid (Dojindo) was added and incubated for 60 min in 5% CO2 at 37°C and washed once using 75 µL of fluorescent calcium indicator dye solution. After addition of 75 µL of fluorescent calcium indicator dye solution to each well again, the relative increases in intracellular Ca^2+ levels by compounds in the presence and absence of 5 μM AMPA were monitored for 8.5 min by fluorometric imaging plate reader. Activity of the compound was defined as fluorescence intensity integrated over the entire period of measurement. Intensity of 0% was defined as activity in the presence of only DMSO, while 100% was defined as activity in the presence of 5 μM AMPA and 10 μM HBT1. For PF-04958242, after removal of culture medium, 90 µL of fluorescent calcium indicator dye solution (Calcium4 assay Kit, Dojindo) in Ca^2+ reaction buffer (DMEM, 20 mM HEPES and 0.1% BSA) containing 2.5 mM Probenecid (Dojindo) was added and incubated for 60 min in 5% CO2 at 37°C. After addition of 90 µL of fluorescent calcium indicator dye solution to each well again, the relative increases in intracellular Ca^2+ levels by compounds in the presence and absence of 1 μM AMPA were monitored for 2 min in a microplate reader (CellLux, PerkinElmer, Waltham, MA, USA). Activity of the compound was defined as fluorescence intensity integrated over the entire period of measurement. 100% was defined as activity in the presence of 1 μM AMPA and 10 μM HBT1, while intensity of 0% was defined as activity in the presence of 1 μM AMPA or only DMSO for potentiator effect or agonistic effect, respectively. EC50 values were calculated by logistic regression analysis.

Compound	Intracellular Ca2+ levels (single application)	Single effect on Ca2+ level	Intracellular Ca2+ level, Agonistic effect @30 μM (absence of AMPA, % of 5 μM AMPA + 10 μM HBT1 response)	EC50 (in the presence of 5 μM AMPA, read-out: Intracellular Ca2+ level, Potentiation EC50)
Cc1onc(O)c1CC(N)C(=O)O (stereo not drawn) [AMPA, alpha-amino-3-hydroxy-5-methyl-4-isoxazole-propionic acid]	dose-dependently increased	+	–	–
CC1=CN2CCS(=O)(=O)N=C2C(c2ccc(OC3CCCCC3)cc2)=N1 [TAK-653, 9-[4-(Cyclohexyloxy)phenyl]-7-methyl-3,4-dihydropyrazino[2,1-c][1,2,4]thiadiazine 2,2-dioxide]	–	─	4.8%	930 nM
